Test results reported in patent publication US11390604B2 (Hoffmann-La Roche Inc., priority 2019, dated 2022).
Where a name gives a salt, the structure may show the parent alone. Read-outs that look alike come from different tables or passages of the source.

Tested on: Acinetobacter baumannii ATCC 17961
Assay: Antimicrobial susceptibility testing: 90% growth inhibitory concentration (IC90) determination
Assay type: cell-based
Summary of the method: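 Growth was followed kinetically by OD600 at 20-min intervals for 16 h at 35±2 °C, with ~5×10^5 CFU/ml in Iso-Sensitest broth. Compounds were tested as twofold dilutions (e.g. 50–0.097 μM final). The concentration giving 90% inhibition of log-phase growth was reported.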

[1] = ATCC17961, Acinetobacter baumannii ATCC 17961, Iso-Sensitest broth, read-out: ATCC 17961 IC90

Row | IC90 [1] [nM] | Compound | also measured
1 | 928 | Cn1c(-c2cn(CCF)nc2C(F)(F)F)cnc1C(=O)Nc1ccc(C(=O)N2CCN(C3=NC(CN)CO3)CC2)c(Cl)c1 (stereo not shown) [Example 145, N-[4-[4-[4-(aminomethyl)-4,5-dihydro-1,3-oxazol-2-yl]piperazine-1-carbonyl]-3-chlorophenyl]-5-[1-(2-fluoroethyl)-3-(trifluoromethyl)pyrazol-4-yl]-1-methylimidazole-2-carboxamide;formic acid] | 
2 | 207 | Cn1c(-c2cn(CC(F)F)nc2C(F)(F)F)cnc1C(=O)Nc1ccc(S(=O)(=O)N2CCN(C(=O)[C@H]3C[C@H](O)CN3)CC2)c(Cl)c1 [Example 198, N-(3-chloro-4-((4-((2R,4S)-4-hydroxypyrrolidine-2-carbonyl)piperazin-1-yl)sulfonyl)phenyl)-5-(1-(2,2-difluoroethyl)-3-(trifluoromethyl)-1H-pyrazol-4-yl)-1-methyl-1H-imidazole-2-carboxamide hydrochloride] | 
3 | 1200 | CCc1cc(NC(=O)c2ncc(-c3cn(Cc4cccnc4)nc3C(F)(F)F)n2C)ccc1C(=O)N1CCN(C(=O)C2CCN(C)CC2)CC1 [Example 158, N-[3-ethyl-4-[4-(1-methylpiperidine-4-carbonyl)piperazine-1-carbonyl]phenyl]-1-methyl-5-[1-(pyridin-3-ylmethyl)-3-(trifluoromethyl)pyrazol-4-yl]imidazole-2-carboxamide;formic acid] | 
4 | 678 | Cn1c(-c2cn(C(CO)CCl)nc2C(F)(F)F)cnc1C(=O)Nc1ccc(C(=O)N2CCN(C(=O)C3CCNCC3)CC2)c(Cl)c1 (stereo not shown) [Example 103, 5-[1-(1-chloro-3-hydroxypropan-2-yl)-3-(trifluoromethyl)pyrazol-4-yl]-N-[3-chloro-4-[4-(piperidine-4-carbonyl)piperazine-1-carbonyl]phenyl]-1-methylimidazole-2-carboxamide;hydrochloride] | 
5 | 978 | Cc1cc(NC(=O)c2ncc(-c3cn(CC#N)nc3C(F)(F)F)n2C)cc(F)c1C(=O)N1CCN(C(=O)[C@H]2CCNC2)CC1 [Example 122, 5-[1-(cyanomethyl)-3-(trifluoromethyl)pyrazol-4-yl]-N-[3-fluoro-5-methyl-4-[4-[(3S)-pyrrolidine-3-carbonyl]piperazine-1-carbonyl]phenyl]-1-methylimidazole-2-carboxamide] | 
6 | 1290 | CC(C(N)=O)n1cc(-c2cnc(C(=O)Nc3ccc(C(=O)N4CCN(C(=O)C5CCNCC5)CC4)c(Cl)c3)n2C)c(C(F)(F)F)n1 (stereo not shown) [Example 22, 5-(1-(1-amino-1-oxopropan-2-yl)-3-(trifluoromethyl)-1H-pyrazol-4-yl)-N-(3-chloro-4-(4-(piperidine-4-carbonyl)piperazine-1-carbonyl)phenyl)-1-methyl-1H-imidazole-2-carboxamide formate] | 
7 | 497 | Cn1c(-c2cn(C3CC3)nc2C(F)(F)F)cnc1C(=O)Nc1ccc(C(=O)NCCCCCCNC(=O)NCC2CNC2)c(Cl)c1 [Example 378, N-[4-[6-(azetidin-3-ylmethylcarbamoylamino)hexyl-carbamoyl]-3-chlorophenyl]-5-[1-cyclopropyl-3-(trifluoromethyl)pyrazol-4-yl]-1-methylimidazole-2-carboxamide;formic acid] | 
8 | 392 | Cn1c(-c2cn(CC#N)nc2C(F)(F)F)cnc1C(=O)Nc1ccc(C(=O)N[C@H]2C[C@@H](NC(=O)N3CC[C@@H](N)C3)C2)c(Cl)c1 [Example 316, N-[4-[[3-[[(3R)-3-aminopyrrolidine-1-carbonyl]amino]cyclobutyl]car-bamoyl]-3-chloro-phenyl]-5-[1-(cyanomethyl)-3-(trifluoromethyl)pyrazol-4-yl]-1-methyl-imidazole-2-carboxamide; formic acid] | 
9 |  | Cn1c(-c2cn(CCF)nc2C(F)(F)F)cnc1C(=O)Nc1ccc(C(=O)N2CCN(C(=O)C3(O)CCCNC3)CC2)c(Cl)c1 (stereo not shown) [Example 180, N-[3-chloro-4-[4-(3-hydroxypiperidine-3-carbonyl)piperazine-1-carbonyl]phenyl]-5-[1-(2-fluoroethyl)-3-(trifluoromethyl)pyrazol-4-yl]-1-methylimidazole-2-carboxamide; Trihydrochloride] | IC90 (Acinetobacter baumannii, ATCC17961, read-out: ATCC 17961 IC90, Acinetobacter baumannii ATCC 17961, Iso-Sensitest broth): 397 nM
10 | 109 | C#CCn1cc(-c2cnc(C(=O)Nc3ccc(C(=O)N4CCN(C(=O)N[C@H]5C[C@@H](N)C5)CC4)c(Cl)c3)n2C)c(C(F)(F)F)n1 [Example 78, N-(3-aminocyclobutyl)-4-[2-chloro-4-[[1-methyl-5-[1-prop-2-ynyl-3-(trifluoromethyl)pyrazol-4-yl]imidazole-2-carbonyl]amino]benzoyl]piperazine-1-carboxamide] | 
11 | 216 | Cn1c(-c2cn(C3CC3(F)F)nc2C(F)(F)F)cnc1C(=O)Nc1ccc(C(=O)N2CCC(F)(CN)CC2)c(Cl)c1 (stereo not shown) [Example 201, N-(4-(4-(aminomethyl)-4-fluoropiperidine-1-carbonyl)-3-chlorophenyl)-5-(1-(2,2-difluorocyclopropyl)-3-(trifluoromethyl)-1H-pyrazol-4-yl)-1-methyl-1H-imidazole-2-carboxamide formate] | 
12 | 241 | C#CCn1cc(-c2cnc(C(=O)Nc3ccc(C(=O)N4CCN(C(=O)[C@H]5CCNC[C@H]5O)CC4)c(Cl)c3)n2C)c(C(F)(F)F)n1 [Example 40, N-(3-chloro-4-(4-((3S,4S)-3-hydroxypiperidine-4-carbonyl)piperazine-1-carbonyl)phenyl)-1-methyl-5-(1-(prop-2-yn-1-yl)-3-(trifluoromethyl)-1H-pyrazol-4-yl)-1H-imidazole-2-carboxamide hydrochloride] | 
13 | 203 | C#CCn1cc(-c2cnc(C(=O)Nc3ccc(C(=O)N4CCN(C(=O)N5CC6CNC6C5)CC4)c(Cl)c3)n2C)c(C(F)(F)F)n1 (stereo not shown) [Example 86, N-[3-chloro-4-[4-(3,6-diazabicyclo[3.2.0]heptane-3-carbonyl)piperazine-1-carbonyl]phenyl]-1-methyl-5-[1-prop-2-ynyl-3-(trifluoromethyl)pyrazol-4-yl]imidazole-2-carboxamide] | 
14 | 1660 | Cn1c(-c2cn(CC(N)=O)nc2C(F)(F)F)cnc1C(=O)Nc1ccc(C(=O)N2CCN(C(=O)C3CCNCC3)CC2)c(Cl)c1 [Example 20, 5-(1-(2-amino-2-oxoethyl)-3-(trifluoromethyl)-1H-pyrazol-4-yl)-N-(3-chloro-4-(4-(piperidine-4-carbonyl)piperazine-1-carbonyl)phenyl)-1-methyl-1H-imidazole-2-carboxamide formate] | 
15 | 295 | Cn1c(-c2cn(C3CC3(F)F)nc2C(F)(F)F)cnc1C(=O)Nc1ccc(C(=O)NCCCCCN)c(Cl)c1 (stereo not shown) [Example 247, N-(4-((5-aminopentyl)carbamoyl)-3-chlorophenyl)-5-(1-(2,2-difluorocyclopropyl)-3-(trifluoromethyl)-1H-pyrazol-4-yl)-1-methyl-1H-imidazole-2-carboxamide] | 
16 | 420 | Cn1c(-c2cn(CC#N)nc2C(F)(F)F)cnc1C(=O)Nc1ccc(C(=O)N[C@H]2C[C@@H](NC(=O)N3CC4CC3CN4)C2)c(Cl)c1 (stereo partly shown) [Example 328, N-[3-[[2-chloro-4-[[5-[1-(cyanomethyl)-3-(trifluoromethyl)pyrazol-4-yl]-1-methyl-imidazole-2-carbonyl]amino]benzoyl]amino]cyclobutyl]-2,5-diazabicyclo[2.2.1]heptane-2-carboxamide; formic acid] | 
17 | 498 | Cn1c(-c2cn(CC#N)nc2C(F)(F)F)cnc1C(=O)Nc1ccc(C(=O)N[C@H]2C[C@@H](NC(=O)[C@H]3CC[C@@H](N)C3)C2)c(Cl)c1 [Example 96, N-[4-[[3-[[(1S,3R)-3-aminocyclopentanecarbonyl]amino]cyclobutyl]carbamoyl]-3-chlorophenyl]-5-[1-(cyanomethyl)-3-(trifluoromethyl)pyrazol-4-yl]-1-methylimidazole-2-carboxamide;2,2,2-trifluoroacetic acid] | 
18 |  | N-(3-amino-3- methylcyclobutyl)-4-[2-chloro- 4-[[5-[1-cyclopropyl-3- (trifluoromethyl)pyrazol-4-yl]- 1-methylimidazole-2- carbonyl]amino]benzoyl]pipera- zine-1-carboxamide;formic acid [Example 238] | IC90 (Acinetobacter baumannii ATCC 17961, Iso-Sensitest broth, read-out: ATCC 17961 IC90): 273 nM
19 | 300 | Cn1c(-c2cn(C3CC3)nc2C(F)(F)F)cnc1C(=O)Nc1ccc(C(=O)N2CCC3(CCNCC3)CC2)c(Cl)c1 [Example 249, N-(3-chloro-4-(3,9-diazaspiro[5.5]undecane-3-carbonyl)phenyl)-5-(1-cyclopropyl-3-(trifluoromethyl)-1H-pyrazol-4-yl)-1-methyl-1H-imidazole-2-carboxamide hydrochloride] | 
20 | 426 | Cn1c(-c2cn(CC3CCC3)nc2C(F)(F)F)cnc1C(=O)Nc1ccc(C(=O)N2CCN(C(=O)[C@@H]3C[C@@H](O)CN3)CC2)c(Cl)c1 [Example 335, N-(3-chloro-4-(4-((2S,4R)-4-hydroxypyrrolidine-2-carbonyl)piperazine-1-carbonyl)phenyl)-5-(1-(cyclobutylmethyl)-3-(trifluoromethyl)-1H-pyrazol-4-yl)-1-methyl-1H-imidazole-2-carboxamide bis(2,2,2-trifluoroacetate)] | 
21 | 234 | CCc1cc(NC(=O)c2ncc(-c3cn(CC#N)nc3C(F)(F)F)n2C)ccc1C(=O)NCCOCC(C)(C)N [Example 170, N-(4-((2-(2-amino-2-methylpropoxy)ethyl)carbamoyl)-3-ethylphenyl)-5-(1-(cyanomethyl)-3-(trifluoromethyl)-1H-pyrazol-4-yl)-1-methyl-1H-imidazole-2-carboxamide] | 
22 | 463 | CC1CN(C(=O)N[C@H]2C[C@@H](NC(=O)c3ccc(NC(=O)c4ncc(-c5cn(CC#N)nc5C(F)(F)F)n4C)cc3Cl)C2)CCN1 (stereo partly shown) [Example 354, N-[3-[[2-chloro-4-[[5-[1-(cyanomethyl)-3-(trifluoromethyl)pyrazol-4-yl]-1-methyl-imidazole-2-carbonyl]amino]benzoyl]amino]cyclobutyl]-3-methyl-piperazine-1-carboxamide; formic acid] | 
